# Results reported in PubChem BioAssay AID330 (DTP/NCI, 2004).
# Several values for one entry are separate records, joined by “and”; a condition that tells them apart may be missing. Equal entries are not always repeated. Inconclusive results and toxic doses are left out.
# Tested on: P388 leukemia ip, CD2F1 mice, survival T/C
# Test: NCI In Vivo Anticancer Drug Screen. Data for tumor model P388 Leukemia (intraperitoneal) in CD2F1 (CDF1) mice
# Settings: endpoint: median survival time, higher = longer survival
# Method in brief: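 Mice carrying the transplanted tumor received test compound or vehicle. Survival was recorded in each group, and the value is the treated-group measurement divided by that of the vehicle-treated control group.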
# [1] = dose: 100.0 mg/kg/injection, schedule: Q04DX002 (ip), vehicle: saline with Tween-80
# [2] = dose: 50.0 mg/kg/injection, schedule: Q04DX002 (ip), vehicle: Klucel (hydroxypropylcellulose) (HPC)
# [3] = dose: 100.0 mg/kg/injection, schedule: Q04DX002 (ip), vehicle: Klucel (hydroxypropylcellulose) (HPC)
# [4] = dose: 200.0 mg/kg/injection, schedule: Q04DX002 (ip), vehicle: Klucel (hydroxypropylcellulose) (HPC)
# [5] = dose: 50.0 mg/kg/injection, schedule: Q01DX005 (ip), vehicle: saline with Tween-80
# [6] = dose: 100.0 mg/kg/injection, schedule: Q01DX005 (ip), vehicle: saline with Tween-80
# [7] = dose: 200.0 mg/kg/injection, schedule: Q01DX005 (ip), vehicle: saline with Tween-80
# [8] = dose: 60.0 mg/kg/injection, schedule: Q01DX005 (ip), vehicle: saline with Tween-80
# [9] = dose: 120.0 mg/kg/injection, schedule: Q01DX005 (ip), vehicle: saline with Tween-80
# [10] = dose: 240.0 mg/kg/injection, schedule: Q01DX005 (ip), vehicle: saline with Tween-80
# [11] = dose: 50.0 mg/kg/injection, schedule: Q01DX009 (ip), vehicle: saline with Tween-80
# [12] = dose: 100.0 mg/kg/injection, schedule: Q01DX009 (ip), vehicle: saline with Tween-80
# [13] = dose: 200.0 mg/kg/injection, schedule: Q01DX009 (ip), vehicle: saline with Tween-80
# [14] = dose: 25.0 mg/kg/injection, schedule: Q01DX009 (ip), vehicle: saline with Tween-80
# [15] = dose: 100.0 mg/kg/injection, schedule: Q01DX009 (ip), vehicle: saline
# [16] = dose: 200.0 mg/kg/injection, schedule: Q01DX009 (ip), vehicle: saline
# [17] = dose: 400.0 mg/kg/injection, schedule: Q01DX009 (ip), vehicle: saline
# [18] = dose: 100.0 mg/kg/injection, schedule: Q04DX003 (ip), vehicle: Klucel (hydroxypropylcellulose) (HPC)
# [19] = dose: 200.0 mg/kg/injection, schedule: Q04DX003 (ip), vehicle: Klucel (hydroxypropylcellulose) (HPC)
compound,measurement,setting,value
COC(=O)c1cn[nH]c1CC#N,T/C,[1],92 % of control
same,T/C,"dose: 200.0 mg/kg/injection, schedule: Q04DX002 (ip), vehicle: saline with Tween-80",100 % of control
Nc1nnnn1/N=C/c1ccccc1,T/C,[2],87 % of control
same,T/C,[3],101 % of control
same,T/C,[4],100 % of control
S=C(N\N=C/C(/C=C/c1ccccc1)=N\NC(=S)Nc1ccc(Cl)cc1)Nc1ccc(Cl)cc1,T/C,"dose: 400.0 mg/kg/injection, schedule: Q01DX001 (ip), vehicle: Klucel (hydroxypropylcellulose) (HPC)",88 % of control
CCC(/C=C/c1ccccc1)=N\NC(=O)c1ccccc1,T/C,[5],96 % of control
same,T/C,[6],96 % of control
same,T/C,[7],95 % of control
CCc1cccc(C(C)C)c1NC1=C([n+]2ccc(C)cc2)C(=O)c2ccccc2C1=O,T/C,[8],117 % of control
same,T/C,[9],106 % of control
same,T/C,[10],119 % of control
NC(N)=NS(=O)(=O)c1ccc(NCc2c3ccccc3nc3cc(Cl)ccc23)cc1,T/C,[8],170 % of control
same,T/C,[9],121 % of control
same,T/C,[10],116 % of control
NN1CC(=O)N(c2ccccc2)CC1=O,T/C,[11],100 % of control
same,T/C,[12],94 % of control
same,T/C,[13],94 % of control
CC(=O)/C(=C\c1c(Cl)cccc1Cl)C(=O)CCN(C)C,T/C,"dose: 7.5 mg/kg/injection, schedule: Q01DX005 (ip), vehicle: saline",120 % of control
same,T/C,"dose: 15.0 mg/kg/injection, schedule: Q01DX005 (ip), vehicle: saline",117 % of control
same,T/C,"dose: 30.0 mg/kg/injection, schedule: Q01DX005 (ip), vehicle: saline",117 % of control
C=C/[Se](=C(/C#N)C(=O)c1ccccc1)c1ccccc1 (configuration not stated),T/C,"dose: 6.25 mg/kg/injection, schedule: Q01DX009 (ip), vehicle: saline",99 % of control
same,T/C,"dose: 12.5 mg/kg/injection, schedule: Q01DX009 (ip), vehicle: saline",99 % of control
same,T/C,"dose: 25.0 mg/kg/injection, schedule: Q01DX009 (ip), vehicle: saline",89 % of control
NC(=S)N/N=C\c1nc2ccccc2c2ccccc12,T/C,[2],99 % of control
same,T/C,[3],95 % of control
same,T/C,[4],94 % of control
FC(F)(F)c1nc2nc(Cl)c(Cl)nc2[nH]1,T/C,"dose: 25.0 mg/kg/injection, schedule: Q04DX003 (ip), vehicle: other",100 % of control
same,T/C,"dose: 50.0 mg/kg/injection, schedule: Q04DX003 (ip), vehicle: other",109 % of control
c1cc[c]([Pb]([S]c2nc3ccccc3[nH]2)([c]2ccccc2)[c]2ccccc2)cc1,T/C,"dose: 0.37 mg/kg/injection, schedule: Q01DX009 (ip), vehicle: Klucel (hydroxypropylcellulose) (HPC)",102 % of control
same,T/C,"dose: 0.75 mg/kg/injection, schedule: Q01DX009 (ip), vehicle: Klucel (hydroxypropylcellulose) (HPC)",121 % of control
same,T/C,"dose: 1.5 mg/kg/injection, schedule: Q01DX009 (ip), vehicle: Klucel (hydroxypropylcellulose) (HPC)",102 % of control
same,T/C,"dose: 3.0 mg/kg/injection, schedule: Q01DX009 (ip), vehicle: Klucel (hydroxypropylcellulose) (HPC)",100 % of control
O=C(C#Cc1ccccc1)c1ccccc1,T/C,"dose: 12.5 mg/kg/injection, schedule: Q01DX009 (ip), vehicle: saline with Tween-80",122 % of control and 124 % of control
same,T/C,[14],98 % of control
same,T/C,[11],121 % of control
CCCCCCCC/C=C\CCCCCCCC(=O)OCCN(CCOC(=O)CCCCCCC/C=C\CCCCCCCC)C(=O)c1ccccc1,T/C,[11],116 % of control
same,T/C,[12],97 % of control
same,T/C,[13],111 % of control
O=C(Nc1ccccc1C(F)(F)F)N(CCO)C1CCCCC1,T/C,[8],103 % of control
same,T/C,[9],103 % of control
same,T/C,[10],103 % of control
CCOC(=S)NC(=O)c1ccccc1,T/C,[11],99 % of control
same,T/C,[12],108 % of control
same,T/C,[13],100 % of control
COc1ccc(/C(C[P+](c2ccccc2)(c2ccccc2)c2ccccc2)=N/OC(C)(C)OC)cc1,T/C,"dose: 6.25 mg/kg/injection, schedule: Q01DX009 (ip), vehicle: Klucel (hydroxypropylcellulose) (HPC)",98 % of control
same,T/C,"dose: 12.5 mg/kg/injection, schedule: Q01DX009 (ip), vehicle: Klucel (hydroxypropylcellulose) (HPC)",100 % of control
same,T/C,"dose: 25.0 mg/kg/injection, schedule: Q01DX009 (ip), vehicle: Klucel (hydroxypropylcellulose) (HPC)",106 % of control
same,T/C,"dose: 50.0 mg/kg/injection, schedule: Q01DX009 (ip), vehicle: Klucel (hydroxypropylcellulose) (HPC)",101 % of control
O=C(Oc1ccccc1)N1CCCSC1=S,T/C,[8],98 % of control
same,T/C,[9],100 % of control
CCCCCCCC/C=C/CCCCCCCCCCCCBr,T/C,[15],90 % of control
same,T/C,"dose: 100.0 mg/kg/injection, schedule: Q04DX003 (ip), vehicle: saline",95 % of control
same,T/C,[16],104 % of control
same,T/C,"dose: 200.0 mg/kg/injection, schedule: Q04DX003 (ip), vehicle: saline",95 % of control
same,T/C,[17],100 % of control
same,T/C,"dose: 400.0 mg/kg/injection, schedule: Q04DX003 (ip), vehicle: saline",100 % of control
O=C1OCCOCCOC(=O)C(=O)OCCOCCOC1=O,T/C,[18],98 % of control
same,T/C,[19],100 % of control
same,T/C,"dose: 400.0 mg/kg/injection, schedule: Q04DX003 (ip), vehicle: Klucel (hydroxypropylcellulose) (HPC)",98 % of control
[Cu+].[NH-]CCCN=Cc1ccccc1O,T/C,"dose: 25.0 mg/kg/injection, schedule: Q01DX001 (ip), vehicle: saline sonified",95 % of control
same,T/C,"dose: 50.0 mg/kg/injection, schedule: Q01DX001 (ip), vehicle: saline sonified",105 % of control
CCOP(=O)(O)C1CCCC(C)[N-]1.CCOP(=O)(O)C1CCCC(C)[N-]1.[Mn+2] (configuration not stated),T/C,[18],100 % of control
same,T/C,[19],111 % of control
CCOC(=O)/C=C(\C)Nc1cccc2c(N/C(C)=C/C(=O)OCC)cccc12,T/C,[5],105 % of control
same,T/C,[6],100 % of control
same,T/C,[7],98 % of control
CSC(=S)N/N=C\c1c(CO)cnc(C)c1O,T/C,[1],116 % of control
same,T/C,"dose: 400.0 mg/kg/injection, schedule: Q04DX002 (ip), vehicle: saline with Tween-80",113 % of control
c1ccc2c(c1)Nc1c(ccc3ccccc13)S2,T/C,[11],95 % of control
same,T/C,"dose: 50.0 mg/kg/injection, schedule: Q01DX009 (ip), vehicle: saline",102 % of control
same,T/C,[12],112 % of control
same,T/C,[15],98 % of control
same,T/C,[13],113 % of control
same,T/C,[16],109 % of control
same,T/C,"dose: 400.0 mg/kg/injection, schedule: Q01DX009 (ip), vehicle: saline with Tween-80",113 % of control
same,T/C,[17],100 % of control
CCOC(=O)C1=Nc2cccc3c(O)ccc1c23,T/C,[5],113 % of control
same,T/C,[6],109 % of control
same,T/C,[7],111 % of control
CCC(C)C(NC(=O)OC(C)(C)C)C(=O)O (configuration not stated),T/C,"dose: 50.0 mg/kg/injection, schedule: Q01DX005 (ip), vehicle: Klucel (hydroxypropylcellulose) (HPC)",103 % of control
same,T/C,"dose: 100.0 mg/kg/injection, schedule: Q01DX005 (ip), vehicle: Klucel (hydroxypropylcellulose) (HPC)",100 % of control
same,T/C,"dose: 200.0 mg/kg/injection, schedule: Q01DX005 (ip), vehicle: Klucel (hydroxypropylcellulose) (HPC)",100 % of control
CN(C)Cc1c(N=Nc2ccc3ccc4cccc5ccc2c3c45)[nH]c2ccccc12,T/C,[11],103 % of control
same,T/C,[12],115 % of control
same,T/C,[13],115 % of control
OCCCCC12CCC(CCCCO)(CC1)CC2,T/C,[3],91 % of control
same,T/C,"dose: 400.0 mg/kg/injection, schedule: Q04DX002 (ip), vehicle: Klucel (hydroxypropylcellulose) (HPC)",86 % of control
O=C(CCCBr)c1ccccc1,T/C,[14],107 % of control
same,T/C,[11],100 % of control
same,T/C,[12],107 % of control
same,T/C,[13],100 % of control
CC1CCC(C(C)C)C([c-]2[c-][c-][c-][c-]2)C1.CC1CCC(C(C)C)C([c-]2[c-][c-][c-][c-]2)C1.[Cl][Zr][Cl] (configuration not stated),T/C,"dose: 6.25 mg/kg/injection, schedule: Q01DX001 (ip), vehicle: Klucel (hydroxypropylcellulose) (HPC)",110 % of control
same,T/C,"dose: 12.5 mg/kg/injection, schedule: Q01DX001 (ip), vehicle: Klucel (hydroxypropylcellulose) (HPC)",100 % of control
same,T/C,"dose: 25.0 mg/kg/injection, schedule: Q01DX001 (ip), vehicle: Klucel (hydroxypropylcellulose) (HPC)",103 % of control
Cc1cc(=O)oc2c(CNC(C(=O)O)C(C)C)c(O)ccc12 (configuration not stated),T/C,"dose: 60.0 mg/kg/injection, schedule: Q01DX005 (ip), vehicle: Klucel (hydroxypropylcellulose) (HPC)",91 % of control
same,T/C,"dose: 120.0 mg/kg/injection, schedule: Q01DX005 (ip), vehicle: Klucel (hydroxypropylcellulose) (HPC)",91 % of control
